Test [1] has as its target T1, α-synuclein (Homo sapiens, UniProt P37840).
T1 construct: purchased rPeptide, Bogart, GA
Put plainly: α-Synuclein aggregation ThT fluorescence assay. Format: biochemical. To be noted: α-Synuclein (6 μM), 10 μM ThT, pH 7.4, 37° C., compound 100 μM or as indicated. Here is the method: α-Synuclein (1.0 mg) was dissolved directly in Tris-HCl (11.53 mL, 20 mM, pH 7.4, 100 mM NaCl) containing DTT (5 mM) and ThT (10 μM).
Aliquots (200 μL) of Aβ^1-40, Aβ^1-42, tau441 or α-synuclein with ThT or ThS were added to wells of a black polystyrene 96-well plate, followed by 2 μL of a compound in DMSO (various concentrations), or DMSO alone (controls). For α-synuclein, sodium dodecyl sulfate solution (2.0 μL, 30 mM) was also added to each well to induce aggregation. […] Plates were covered with clear polystyrene lids and incubated at 37° C. in a GENios microplate reader obtained from Tecan Group Limited, Mannedorf, Zurich. For Aβ^1-40, tau441 and α-synuclein, fluorescence readings (λex=450 nm, λem=480 nm) were taken every 15 min., after first shaking at high intensity for 15 sec. and allowing to settle for 10 sec. before each reading. For Aβ^1-42, readings were taken every 5 min.
FIG. 12 depicts inhibition of α-synuclein aggregation by synthesized bi-aromatics and positive control morin (K, Yamada M. 2006. J Neurochem 97:105-15). Aggregation conditions: α-Synuclein (6 μM) was incubated in covered black 96-well polystyrene microplates in Tris-HCl (20 mM, pH 7.4), 10 μM ThT, 1% DMSO with compound concentrations of 100 μM (A) or as indicated (B). Plates were heated at 37° C. in a Tecan Genios microplate reader. […] Fluorescence readings: fluorescence was measured every 15 min. […]

Test [2] addresses T2, Aβ1-40 (Homo sapiens, UniProt P05067).
T2 construct: Aβ^1-40 (AnaSpec, San Jose, Calif., lots 14212, 34862 and 34889); purchased AnaSpec, San Jose, Calif
The experiment in a line: “Seeded” Thioflavin T aggregation assay for Aβ1-40. The test is classed as biochemical. To be noted: HFIP pretreatment omitted. The text has this:
The same procedure as described in Thioflavin T Aggregation Assay was used for “seeded” ThT aggregarion assay for Aβ^1-40 but the HFIP pretreatment was omitted. The presence of small Aβ^1-40 aggregates in the untreated batches caused aggregation to begin immediately rather than after a 12-24 hr. lag period.

Test [3] deals with T2, Aβ1-40. The experiment in a line: Circular dichroism studies of Aβ1-40. The test is classed as biochemical. To be noted: 40 μM Aβ1-40, 200 μM compound, pH 7.4, 37° C. As to the method:
Aliquots (220 μL) of pretreated Aβ^1-40 (40 μM in 20 mM Tris-HCl, pH 7.4) were added directly to 1 mm quartz circular dichroism (CD) cells, followed by 2.2 μL compound (of varying concentration) in methanol or methanol alone (controls). Solutions were incubated at 37° C. for up to 6 days. CD scans were performed on a J-810 spectropolarimeter (obtained from Jasco Corporation, Tokyo, Japan) between 190 and 250 nm, with a resolution of 0.1 nm and bandwidth of 1 nm. Ten scans were obtained for each reading. Spectra had background CD of the buffer subtracted and were left unsmoothed. Readings were performed at 37° C.
FIG. 6 depicts circular dichroism (CD) of Aβ^1-40 alone (A) and in the presence of 0j (B) and morin (C). Conditions: 40 μM Aβ^1-40, 200 μM compound (B,C), pH 7.4, Tris-HCl (20 mM), 1% MeOH. Prior to experiment, Aβ^1-40 pretreated with 1,1,1,3,3,3-hexafluoroisopropanol (HFIP).
A general note: CD spectra are sensitive to the conformation of chiral molecules.

For test [4], the target named is T2, Aβ1-40. The experiment in a line: 1H NMR binding of bi-aromatics to Aβ1-40. To be noted: 100 μM Aβ1-40, 50 μM compound, D2O, 27° C. Here is the method: Aβ^1-40 was dissolved in HFIP (1 mL) and sonicated (20 min) to disassemble any pre-formed aggregates. The HFIP was removed with a stream of Ar(g) and the waxy residue dissolved in 2.2 mL buffer (Tris-d11, 20 mM in D2O). Incubations (0.500 mL) were made directly in thin-walled NMR tubes, to which were added compound (2.5 μL, 10 mM in DMSO-d6) or vehicle. An identical incubation lacking Aβ^1-40 was used as compound reference. Spectra were obtained for Aβ^1-40 alone (100 μM), compound alone (50 μM) and for a mixture of both (100 μM Aβ^1-40, 50 μM compound). Spectra were recorded at 500 MHz and 27° C. (300K), with 674 scans obtained for each.
FIG. 9 depicts ^1H NMR spectra identifying binding of 5-bromo-5′-carboxy-3,3′-bis-indolyl (0c) to Aβ^1-40. Spectra were obtained for Aβ^1-40 alone (100 μM, A), compound alone (50 μM, C) and for a mixture of both (100 μM Aβ^1-40, 50 μM compound, B). Spectra were recorded at 500 MHz and 27° C. (300K) in D2O containing 1% DMSO-d6, and 674 scans were obtained for each.

Structures are written as SMILES.

T2 sequence (P05067 672-711 limits assumed): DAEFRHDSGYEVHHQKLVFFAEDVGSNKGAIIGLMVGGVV

As to `O=c1c(O)c(-c2ccc(O)cc2O)oc2cc(O)cc(O)c12` [morin], in test [1], the “inhibition of α-synuclein aggregation (ThT fluorescence)” value is “inhibition”.
With `O=C(O)c1ccc2[nH]cc(-c3c[nH]c4ccc(Br)cc34)c2c1` [0c, 3-(5-bromo-indol-3-yl)-indole-5-carboxylic Acid], in test [2], the “inhibition of Aβ1-40 aggregation in “seeded” ThT assay” value is listed as “inhibition”. In addition, the “random coil (RC)→β-sheet transition of Aβ1-40 by circular dichroism” value in test [3] is reported as “this transition was inhibited”. Also, in test [4], the “binding to Aβ1-40 by 1H NMR (signal broadening)” value is recorded as “binding”.
